Read-outs that look alike come from different tables or passages of the source.
Key:
[1] = test system: DLBCL; assay: Phase 1/2 clinical study, DLBCL patients; type: in vivo, human
Description: (§1) The study is an open-label, multi-center study of oral BTK-I to evaluate safety and efficacy as monotherapy and as part of combination therapy in patients with CLL/SLL and NHL who have failed or are intolerant to standard of care. This study includes monotherapy as well as combination treatment parts. The monotherapy part includes Phase 1 dose escalation and dose expansion as well as Phase 2. The combination therapy part is a Phase 1b (safety assessment and expansion) of BTK-I in combination with venetoclax, with or without anti-CD20 therapy. Phase 1 dose escalation will proceed prior to start of Phase 1b or Phase 2. Once a recommended Phase 2 dose (RP2D) is identified in Phase 1, enrollment can commence to the Phase 1b combination therapies and Phase 2 monotherapy cohorts. […]
(§2) The primary objective of the Phase 2 is to assess the primary anti-tumor activity of BTK-I based on overall response rate (ORR) and as assessed by the Independent Review Committee. […]
(§3) Dosing during Phase 2 will be at the RP2D of 200 mg QD. […] The dose (and schedule) chosen for Phase 2 may be changed by the SRC based on emerging data (e.g., PK, safety, and/or efficacy) as long as the new dose is not greater than the highest dose that has a DLT <33% and is determined to be safe by the SRC in Phase 1. […]

[2] = test system: MZL; assay: Phase 1/2 clinical study, MZL patients; type: in vivo, human
Description: as §1, §2, §3

[3] = molecular target: T1, BTK wild type (Homo sapiens, UniProt Q06187); assay: BTK Y223 autophosphorylation in HEK293 cells expressing BTK wild type; type: cell-based; conditions: for IC90: HEK293, wild type BTK
T1 construct: expressed in transfected cells
Method: HEK293 cell lines stably expressing BTK wild type and the mutant form C481S are generated using standard transfection methods. For assessment of cellular inhibition potency, cells are grown in DMEM+10% FBS+1 μg/mL puromycin (complete growth media) at 37° C. in a C02 incubator. Cells are harvested according to standard protocols using TrypLE (Gibco #12604-013), counted, resuspended in complete growth media, and added to 6 well assay plates at […] in 2 mL. Plates are incubated overnight at 37° C. with 5% C02. The following day, cells are treated for 2 hours with BTK-I, prepared as a 6-point dose curve, 1:3 dilution series with final concentrations starting at a maximum concentration of 300 nM and a constant DMSO concentration of 0.5% (v/v). Control wells contain 0.5% (v/v) DMSO alone (no inhibition control). All samples are tested in triplicate. Following compound incubation, growth medium is discarded, cells are washed with DPBS (1×) (Gibco #14190-144) and lysed in 1 mL of CelLytic™ M (Sigma #C2978) containing 1× Halt phosphatase and protease inhibitor cocktails (Pierce #78442). Plates are placed on ice for 1 hour with gentle agitation and stored at −80° C. overnight. The next day, cell lysates are placed in 1.5 mL tubes and cleared by centrifugation at 16,000×g for 10 minutes at 4° C. Supernatants are quantified by BCA (Pierce #23225) and stored at −80° C. Samples are analyzed by Simple Western (Protein Simple) with anti-phospho-BTK (Y223) (Cell signaling technologies (cst) #5082) and anti-BTK (cst #8547). β-actin is the used as a loading control and detected by regular Western blot with an anti-β-actin antibody (cst #4970). Simple Western results are analyzed with Compass software (Protein Simple). BTK Y223 phosphorylation signal is normalized to total BTK, and IC50 values are calculated using a 4-parameter fit in GraphPad Prism 7.04 software.

[4] = test system: MCL; assay: Phase 1/2 clinical study, mantle cell lymphoma patients; type: in vivo, human
Description: The study is an open-label, multi-center study of oral BTK-I to evaluate safety and efficacy as monotherapy and as part of combination therapy in patients with CLL/SLL and NHL who have failed or are intolerant to standard of care. This study includes monotherapy as well as combination treatment parts. The monotherapy part includes Phase 1 dose escalation and dose expansion as well as Phase 2. The combination therapy part is a Phase 1b (safety assessment and expansion) of BTK-I in combination with venetoclax, with or without anti-CD20 therapy. Phase 1 dose escalation will proceed prior to start of Phase 1b or Phase 2. Once a recommended Phase 2 dose (RP2D) is identified in Phase 1, enrollment can commence to the Phase 1b combination therapies and Phase 2 monotherapy cohorts.
The primary objectives of the Phase 1 Dose Escalation and Expansion part of the study is to determine the maximum tolerated dose (MTD)/RP2D of oral BTK-I in patients with previously treated CLL/SLL and B-cell NHL.
Patients are enrolled with histologically confirmed CLL/SLL or B-cell NHL who have failed or are intolerant to at least two prior standard of care regimens given in combination or sequentially or have received at least one prior BTK inhibitor-containing regimen when BTK inhibitor is approved in first line.
BTK-I is administered in oral tablet form. Dose escalation will follow a 3+3 design starting with a 25 mg QD dose (followed by 50 mg QD (dose level cohort 2), 100 mg QD (dose level cohort 3), 150 mg QD (dose level cohort 4), 200 mg QD (dose level cohort 5), 250 mg QD (dose level cohort 6), and 300 mg QD (dose level cohort 7)). Cycle length will be 28 days. The drug limiting toxicity (DLT) period will be 28 days, commencing with the first dose of BTK-I.
The primary objective of the Phase 2 is to assess the primary anti-tumor activity of BTK-I based on overall response rate (ORR) and as assessed by the Independent Review Committee.
At the RP2D up to ˜600 patients with CLL/SLL or NHL will be enrolled to one of the following cohorts: • Cohort 1: Non-blastoid MCL patients treated with a prior BTK-inhibitor. • Cohort 2: CLL/SLL patients treated with 2 or more prior regimens, including a BTK inhibitor-containing regimen. • Cohort 3: CLL/SLL patients with no prior therapy. • Cohort 4: CLL/SLL patients treated with prior therapy, BTK inhibitor naive. • Cohort 5: WM patients treated with a prior BTK inhibitor containing regimen. • Cohort 6: MZL patients treated with a prior BTK inhibitor containing regimen. • Cohort 7: (Not otherwise specified) defined as CLL/SLL or NHL not otherwise specified in Cohorts 1 through 6, inclusive of CLL/SLL or NHL, Richter's transformation, blastoid MCL, and patients with history of CNS involvement or primary CNS lymphoma.
Dosing during Phase 2 will be at the RP2D of 200 mg QD. The cycle length will be 28 days. BTK-I will be administered to the Phase 2 patients in oral tablet form at the RP2D. The dose (and schedule) chosen for Phase 2 may be changed by the SRC based on emerging data (e.g., PK, safety, and/or efficacy) as long as the new dose is not greater than the highest dose that has a DLT <33% and is determined to be safe by the SRC in Phase 1. If the RP2D is changed based on emerging data, patients enrolled to Phase 2 at a different dose may have the dose changed to the new dose.

T1 sequence (Q06187 whole entry): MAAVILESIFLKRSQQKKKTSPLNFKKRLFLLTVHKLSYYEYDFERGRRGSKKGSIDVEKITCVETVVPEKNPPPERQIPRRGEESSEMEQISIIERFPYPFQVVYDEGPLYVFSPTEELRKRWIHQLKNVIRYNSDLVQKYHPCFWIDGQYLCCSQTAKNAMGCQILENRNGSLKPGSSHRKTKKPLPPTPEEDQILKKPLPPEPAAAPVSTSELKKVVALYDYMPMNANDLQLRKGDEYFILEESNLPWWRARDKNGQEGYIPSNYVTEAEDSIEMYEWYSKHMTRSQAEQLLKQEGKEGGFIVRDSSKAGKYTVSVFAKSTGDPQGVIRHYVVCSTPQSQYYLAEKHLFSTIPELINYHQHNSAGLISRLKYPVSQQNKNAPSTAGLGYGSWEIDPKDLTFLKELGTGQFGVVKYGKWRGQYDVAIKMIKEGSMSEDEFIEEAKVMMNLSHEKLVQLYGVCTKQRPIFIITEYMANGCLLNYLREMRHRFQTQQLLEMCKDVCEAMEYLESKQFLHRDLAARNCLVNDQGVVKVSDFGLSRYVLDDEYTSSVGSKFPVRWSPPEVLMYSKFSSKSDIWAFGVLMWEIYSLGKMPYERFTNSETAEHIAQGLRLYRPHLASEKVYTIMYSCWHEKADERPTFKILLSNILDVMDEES

With COc1ccc(F)cc1C(=O)NCc1ccc(-c2nn([C@@H](C)C(F)(F)F)c(N)c2C(N)=O)cc1 [BTK-I, (S)-5-amino-3-(4-((5-fluoro-2-methoxybenzamido)methyl)phenyl)-1-(1,1,1-trifluoropropane-2-yl)-1H-pyrazole-4-carboxamide] the responses/patients [1] was 6/25, the responses/patients [2] was 2/9 and the IC90 ([3]; read-out: IC90) was 77.4 nM. For the same molecule, the IC90 ([3]; read-out: IC90 translated to total drug in human plasma) was roughly 0.806 µg/mL, the IC50 ([3]; expressed as plasma concentration, read-out: IC50, inhibition of BTK in vitro) was 192 nM and the ORR ([4]; 52 patients with prior covalent BTK inhibitor, 95% CI: 38-66) was 52%. For the same molecule, the ORR ([4]; 56 efficacy-evaluable MCL patients, 95% CI: 38-65) was 52%, the “median time to first response” value ([4]; MCL) was 1.8 months and the “patients remaining on BTK-I” value ([4]; all MCL patients) was 57%. For the same molecule, the “responding patients who discontinued treatment” value ([4]; of 29 responders (4 PD, 1 in CR)) was 5, the “CR, patients” value ([4]; of 56 efficacy-evaluable) was 14 and the “NE, patients” value ([4]; of 56 efficacy-evaluable) was 5. The “PD, patients” value ([4]; of 56 efficacy-evaluable) was 12, the “PR, patients” value ([4]; of 56 efficacy-evaluable) was 15 and the responses ([4]; patients with blastoid variant MCL) was 2 of 4. The responses ([4]; patients with prior CAR-T) was 2 of 2 and the responses ([4]; prior autologous or allogeneic transplant (9/14)) was 64%.

— US12551463B2, “Dosing of a Bruton's tyrosine kinase inhibitor” (Loxo Oncology, Inc., priority 2019, dated 2026)
